In ChEMBL document CHEMBL1201862, “PubChem BioAssay data set” (2004):
Active and inactive are the calls of the source.

Tests used:
Protein RecA = biological target: T1, Protein RecA (Mycobacterium tuberculosis, UniProt P9WHJ3); assay: Fluorescence Cell-Free Homogeneous Dose Retest to Identify Inhibitors of RecA-Intein Splicing Activity. [Related pubchem assays (depositor defined):AID2097, AID2223, AID489010, AID492950]; format: functional
T1 sequence (P9WHJ3 whole entry): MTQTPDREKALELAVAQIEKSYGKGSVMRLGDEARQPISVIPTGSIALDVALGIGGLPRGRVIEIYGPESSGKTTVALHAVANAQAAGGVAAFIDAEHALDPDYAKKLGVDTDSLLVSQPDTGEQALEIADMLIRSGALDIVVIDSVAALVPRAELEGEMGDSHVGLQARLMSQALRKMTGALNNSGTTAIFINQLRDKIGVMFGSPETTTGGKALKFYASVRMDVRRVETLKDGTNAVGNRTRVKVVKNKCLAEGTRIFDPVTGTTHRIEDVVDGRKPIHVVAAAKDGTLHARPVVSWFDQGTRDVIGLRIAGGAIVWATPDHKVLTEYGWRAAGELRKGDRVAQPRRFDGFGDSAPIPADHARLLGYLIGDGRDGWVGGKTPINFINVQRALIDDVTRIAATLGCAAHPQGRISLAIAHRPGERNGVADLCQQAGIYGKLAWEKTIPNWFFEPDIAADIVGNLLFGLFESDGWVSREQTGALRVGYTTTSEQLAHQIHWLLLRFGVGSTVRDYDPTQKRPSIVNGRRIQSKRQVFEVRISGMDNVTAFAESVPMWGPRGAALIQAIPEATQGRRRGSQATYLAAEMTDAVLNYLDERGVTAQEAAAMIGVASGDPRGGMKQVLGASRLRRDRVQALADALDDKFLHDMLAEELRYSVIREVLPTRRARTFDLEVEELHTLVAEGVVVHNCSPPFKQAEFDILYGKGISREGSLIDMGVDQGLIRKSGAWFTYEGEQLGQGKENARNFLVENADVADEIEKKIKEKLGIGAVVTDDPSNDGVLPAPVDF

Vero [1] = assay: mammalian cell viability reduction – secondary assay, cytotoxicity control for West Nile virus antiviral project, dose response (AID 1650); format: functional; conditions: Chlorocebus sabaeus
[2] = biological target: T2, Replicative DNA helicase DnaB (Mycobacterium tuberculosis, UniProt P9WMR3); assay: DnaB intein splicing inhibitors, dose response, biochemical, cell-free fluorescence (AID 449749); format: functional
T2 sequence (P9WMR3 whole entry): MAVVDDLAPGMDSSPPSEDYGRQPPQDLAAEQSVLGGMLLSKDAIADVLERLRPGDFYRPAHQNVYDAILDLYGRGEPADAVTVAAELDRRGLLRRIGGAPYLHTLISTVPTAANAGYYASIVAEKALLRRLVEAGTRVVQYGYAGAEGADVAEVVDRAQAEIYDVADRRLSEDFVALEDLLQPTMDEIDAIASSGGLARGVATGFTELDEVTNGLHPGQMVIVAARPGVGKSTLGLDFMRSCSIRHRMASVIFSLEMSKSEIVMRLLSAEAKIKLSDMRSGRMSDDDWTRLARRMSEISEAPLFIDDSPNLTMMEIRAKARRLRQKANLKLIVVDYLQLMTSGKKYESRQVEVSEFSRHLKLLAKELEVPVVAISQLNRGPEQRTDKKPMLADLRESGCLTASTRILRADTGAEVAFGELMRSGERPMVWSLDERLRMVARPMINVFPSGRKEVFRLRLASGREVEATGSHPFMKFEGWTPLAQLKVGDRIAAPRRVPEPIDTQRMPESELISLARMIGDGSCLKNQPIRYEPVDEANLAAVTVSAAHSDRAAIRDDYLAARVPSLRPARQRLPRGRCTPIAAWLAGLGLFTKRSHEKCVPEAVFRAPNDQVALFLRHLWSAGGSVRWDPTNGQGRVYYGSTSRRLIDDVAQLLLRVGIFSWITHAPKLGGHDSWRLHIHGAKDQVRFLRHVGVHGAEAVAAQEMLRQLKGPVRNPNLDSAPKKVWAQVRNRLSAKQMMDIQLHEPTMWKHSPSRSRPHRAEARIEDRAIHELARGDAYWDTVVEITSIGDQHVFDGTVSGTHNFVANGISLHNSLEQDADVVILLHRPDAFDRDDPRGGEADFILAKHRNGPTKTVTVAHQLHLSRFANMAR

[3] = biological target: T3, RNA-editing ligase 1, mitochondrial (Trypanosoma brucei brucei, UniProt P86926); assay: inhibition of trypanosome RNA editing ligase – biochemical, fluorescence, Trypanosoma brucei, dose response (AID 1117295); format: functional
T3 sequence (P86926 whole entry): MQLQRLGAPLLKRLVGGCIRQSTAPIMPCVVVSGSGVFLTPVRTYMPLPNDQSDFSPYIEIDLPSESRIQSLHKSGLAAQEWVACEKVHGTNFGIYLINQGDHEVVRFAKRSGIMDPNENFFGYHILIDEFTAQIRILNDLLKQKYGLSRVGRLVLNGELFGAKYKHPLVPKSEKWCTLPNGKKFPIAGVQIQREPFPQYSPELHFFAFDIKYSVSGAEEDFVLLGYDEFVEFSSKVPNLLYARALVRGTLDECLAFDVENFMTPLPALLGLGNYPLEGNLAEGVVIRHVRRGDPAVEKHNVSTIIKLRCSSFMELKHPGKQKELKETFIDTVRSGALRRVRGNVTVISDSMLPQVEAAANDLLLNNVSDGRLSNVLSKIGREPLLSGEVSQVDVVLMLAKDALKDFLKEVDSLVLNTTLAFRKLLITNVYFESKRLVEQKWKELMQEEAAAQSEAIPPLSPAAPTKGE

[4] = HIV-1 Vif–A3G interaction blockers – biochemical, TR-FRET, GST-Vif 1-94, biotin-A3G peptide, dose response retest, primary screen (AID 1117319); format: functional;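 note: TR-FRET signal of purified GST-Vif binding a biotinylated A3G peptide; inhibitors lower the FRET signal by blocking Vif and A3G binding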
[5] = biological target: Protein-tyrosine kinase 2-beta (Homo sapiens, UniProt Q14289);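 note: potency of inhibitors of PYK2 kinase phosphorylation of poly-GT substrate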
Cytochrome P450 1A2 = biological target: T4, Cytochrome P450 1A2 (Homo sapiens, UniProt P05177);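 note: PubChem cytochrome P450 panel assay, CYP1A2 panel member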
T4 sequence (P05177 whole entry): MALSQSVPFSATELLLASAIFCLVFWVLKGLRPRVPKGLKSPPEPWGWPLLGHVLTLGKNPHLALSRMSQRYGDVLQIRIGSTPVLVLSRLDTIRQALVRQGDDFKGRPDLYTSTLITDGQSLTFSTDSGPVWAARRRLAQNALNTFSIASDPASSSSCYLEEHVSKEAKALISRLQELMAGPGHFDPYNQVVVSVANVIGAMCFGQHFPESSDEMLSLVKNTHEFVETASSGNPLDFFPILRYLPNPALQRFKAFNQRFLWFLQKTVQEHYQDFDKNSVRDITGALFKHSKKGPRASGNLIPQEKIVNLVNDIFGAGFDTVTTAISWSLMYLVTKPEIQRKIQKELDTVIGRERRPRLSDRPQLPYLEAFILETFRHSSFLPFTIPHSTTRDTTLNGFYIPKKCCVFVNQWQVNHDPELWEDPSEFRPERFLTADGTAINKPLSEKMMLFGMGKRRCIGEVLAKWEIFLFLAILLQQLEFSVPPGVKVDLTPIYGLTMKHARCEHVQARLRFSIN

Cytochrome P450 2C19 = Cytochrome P450 2C19 (Homo sapiens, UniProt P33261); assay: Cytochrome panel assay with activity outcomes. Panel member name: p450-cyp2c19 Compounds with AC50 equal or less than 10 uM are considered active; format: functional; conditions: read-out: AC50
Cytochrome P450 3A4 = Cytochrome P450 3A4 (Homo sapiens, UniProt P08684);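 note: CYP3A4 tested as one member of a cytochrome P450 panel screen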
[6] = Luminescence Cell-Based Dose Retest to Confirm Inhibitors of Cancer Stem Cells. [Related pubchem assays (depositor defined):AID2717, AID2721]; format: functional; conditions: Homo sapiens
Vero [7] = assay: cells; format: functional; conditions: Chlorocebus sabaeus
BJ [8] = assay: growth inhibition of engineered Ras-driven BJ cells – cell-based, alamar blue fluorescence, cherrypicked samples, dose response (AID 2631); format: functional; conditions: Homo sapiens;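 note: confirmatory dose-response assay in RAS-dependent BJ fibroblasts engineered with TERT, LT and ST, with cytotoxicity read by fluorescence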
[9] = HEK-293T viability loss after treatment – luminescence, T-cell screen hits, cytotoxicity control for TCR NF-kB inhibitor project, dose response (AID 489026); format: functional, cell-based;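 note: cells exposed to compound about 14 hours before the viability readout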
BJ [10] = assay: cells; format: functional, cell-based; conditions: Homo sapiens
[11] = DRD fibroblast viability loss – cell-based, non-viral oncogenic, luminescence, dose response (AID 1934); format: functional; conditions: Homo sapiens
[12] = general cell-killing toxicity readout – plate reader, dry powder samples, cytotoxicity control for PAX8 inhibitor project, dose response (AID 743021); format: functional, cell-based
Paired box protein Pax-8 = Paired box protein Pax-8 (Homo sapiens, UniProt Q06710); assay: PAX8 transcriptional activity inhibition in RMG-I – RMG-I cells, luciferase, cherry-pick, dose response (AID 687027); format: functional, cell-based;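 note: luciferase reporter driven by Pax8 target thyroperoxidase promoter measured by SteadyGlo luminescence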
BJ [13] = assay: BJ-TERT fibroblast viability loss – cell-based, RAS-independent, luminescence, dose response (AID 1933); format: functional; conditions: Homo sapiens
[14] = Luminescence-based counterscreen assay for KLF5 inhibitors: dose response cell-based high throughput screening assay to identify cytotoxic compounds using the IEC-6 intestinal epithelial cell line. [Related pubchem assays: 1700 (Primary screen.), 1834 (Confirmation screen.), 1858 (Summary AID.), 1905 (Counterscreen.)]; format: functional
BJ [15] = assay: BJ-TERT-LT-ST fibroblast viability loss – cell-based, RAS-independent, luminescence, dose response (AID 1935); format: functional; conditions: Homo sapiens;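 note: BJ fibroblasts immortalized with TERT plus LT and ST oncogenes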
Large T antigen = Large T antigen (Simian virus 40, UniProt P03070); format: functional, Betapolyomavirus macacae;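 note: Confirmatory-stage PubChem screen for compounds that inhibit SV40 T antigen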
Caspase-6 = biological target: T5, Caspase-6 (Homo sapiens, UniProt P55212); assay: inhibition of CASP6 peptide cleavage – biochemical, VEID-R110 fluorescence, cherry-pick, dose response (AID 720632)
T5 sequence (P55212 whole entry): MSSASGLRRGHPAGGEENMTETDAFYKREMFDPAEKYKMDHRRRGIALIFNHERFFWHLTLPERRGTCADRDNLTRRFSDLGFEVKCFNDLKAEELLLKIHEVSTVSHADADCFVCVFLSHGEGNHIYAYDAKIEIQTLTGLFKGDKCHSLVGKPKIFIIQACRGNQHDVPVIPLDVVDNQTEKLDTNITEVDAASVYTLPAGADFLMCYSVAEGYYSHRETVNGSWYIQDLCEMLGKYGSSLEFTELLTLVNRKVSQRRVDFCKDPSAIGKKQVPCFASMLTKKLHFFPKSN

Caspase-7 = biological target: T6, Caspase-7 (Homo sapiens, UniProt P55210); assay: caspase-7 enzyme inhibition, selectivity check – biochemical, DEVD-R110 fluorescence, cherry-pick, selectivity assay for caspase-6 inhibitor project, dose response (AID 743295); format: functional
T6 sequence (P55210 whole entry): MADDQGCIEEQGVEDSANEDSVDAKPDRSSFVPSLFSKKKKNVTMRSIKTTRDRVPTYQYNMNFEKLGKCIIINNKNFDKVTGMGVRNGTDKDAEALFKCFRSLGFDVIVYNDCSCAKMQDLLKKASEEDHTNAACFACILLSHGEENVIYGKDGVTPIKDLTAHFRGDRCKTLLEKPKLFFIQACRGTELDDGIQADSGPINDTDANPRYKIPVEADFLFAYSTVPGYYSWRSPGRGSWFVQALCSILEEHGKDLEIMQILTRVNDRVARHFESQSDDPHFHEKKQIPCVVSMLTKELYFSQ

[16] = biological target: Glucose-6-phosphate 1-dehydrogenase (Homo sapiens, UniProt P11413); assay: inhibition of Homo sapiens G6PD, dose series – biochemical, fluorescence, selectivity assay for P. falciparum G6PD inhibitor project, dose response (AID 504792); format: functional
Caspase-9 = biological target: T7, Caspase-9 (Homo sapiens, UniProt P55211); assay: inhibitors of purified CASP9 protease – biochemical, fluorescence, plate reader, cherry-picked samples, selectivity assay for caspase-6 inhibitor project, dose response (AID 743293)
T7 sequence (P55211 whole entry): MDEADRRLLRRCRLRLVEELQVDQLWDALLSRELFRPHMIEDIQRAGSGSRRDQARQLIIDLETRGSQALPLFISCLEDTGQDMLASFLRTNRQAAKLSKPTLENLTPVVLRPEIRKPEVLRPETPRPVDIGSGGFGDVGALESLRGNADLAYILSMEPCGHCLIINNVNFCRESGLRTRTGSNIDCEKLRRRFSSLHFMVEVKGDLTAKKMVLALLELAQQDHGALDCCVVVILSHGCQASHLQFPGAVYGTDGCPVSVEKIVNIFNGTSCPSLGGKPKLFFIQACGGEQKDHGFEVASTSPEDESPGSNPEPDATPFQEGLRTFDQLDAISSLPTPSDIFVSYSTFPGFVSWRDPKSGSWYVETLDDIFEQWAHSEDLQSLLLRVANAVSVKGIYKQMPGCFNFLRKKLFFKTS

Chain of Protein-tyrosine kinase 2-beta (Q14289 whole entry): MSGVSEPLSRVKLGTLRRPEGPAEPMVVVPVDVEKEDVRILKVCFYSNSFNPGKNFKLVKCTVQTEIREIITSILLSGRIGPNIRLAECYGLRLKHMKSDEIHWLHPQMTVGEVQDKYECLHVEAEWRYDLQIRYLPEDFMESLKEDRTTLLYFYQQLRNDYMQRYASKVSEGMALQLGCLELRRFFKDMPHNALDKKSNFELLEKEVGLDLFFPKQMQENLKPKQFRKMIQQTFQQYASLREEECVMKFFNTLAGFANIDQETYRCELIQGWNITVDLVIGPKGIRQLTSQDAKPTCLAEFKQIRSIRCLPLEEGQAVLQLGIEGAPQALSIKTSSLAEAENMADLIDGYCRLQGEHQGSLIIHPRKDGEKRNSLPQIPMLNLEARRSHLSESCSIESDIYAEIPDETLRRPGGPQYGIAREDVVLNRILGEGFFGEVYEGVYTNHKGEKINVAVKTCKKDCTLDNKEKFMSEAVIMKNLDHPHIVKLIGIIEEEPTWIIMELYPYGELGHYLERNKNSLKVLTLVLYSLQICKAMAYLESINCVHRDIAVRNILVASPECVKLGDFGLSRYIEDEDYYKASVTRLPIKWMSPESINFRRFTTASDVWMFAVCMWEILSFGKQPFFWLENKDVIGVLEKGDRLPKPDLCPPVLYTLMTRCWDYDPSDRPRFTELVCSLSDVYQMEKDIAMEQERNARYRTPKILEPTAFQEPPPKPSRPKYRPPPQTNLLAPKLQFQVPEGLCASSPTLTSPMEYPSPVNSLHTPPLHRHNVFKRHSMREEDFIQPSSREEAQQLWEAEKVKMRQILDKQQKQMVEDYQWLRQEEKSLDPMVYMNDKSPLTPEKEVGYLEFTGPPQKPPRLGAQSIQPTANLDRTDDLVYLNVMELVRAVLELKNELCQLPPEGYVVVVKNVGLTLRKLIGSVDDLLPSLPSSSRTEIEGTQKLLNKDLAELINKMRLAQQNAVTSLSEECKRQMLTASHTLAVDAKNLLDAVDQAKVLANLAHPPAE
Chain of Cytochrome P450 2C19 (P33261 whole entry): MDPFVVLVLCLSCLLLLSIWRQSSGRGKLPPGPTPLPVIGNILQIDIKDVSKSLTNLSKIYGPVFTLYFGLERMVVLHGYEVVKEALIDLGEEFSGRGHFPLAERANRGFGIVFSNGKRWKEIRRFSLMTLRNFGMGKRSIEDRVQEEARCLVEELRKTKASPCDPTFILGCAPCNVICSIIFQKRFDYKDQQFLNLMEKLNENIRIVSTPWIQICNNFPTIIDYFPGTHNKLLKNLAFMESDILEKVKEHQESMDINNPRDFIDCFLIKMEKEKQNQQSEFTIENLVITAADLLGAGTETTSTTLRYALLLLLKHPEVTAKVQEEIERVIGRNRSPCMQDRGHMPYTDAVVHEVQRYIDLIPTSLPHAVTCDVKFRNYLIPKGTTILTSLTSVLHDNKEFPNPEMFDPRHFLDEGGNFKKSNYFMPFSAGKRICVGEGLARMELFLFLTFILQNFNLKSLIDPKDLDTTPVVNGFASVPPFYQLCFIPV
Chain of Glucose-6-phosphate 1-dehydrogenase (P11413 whole entry): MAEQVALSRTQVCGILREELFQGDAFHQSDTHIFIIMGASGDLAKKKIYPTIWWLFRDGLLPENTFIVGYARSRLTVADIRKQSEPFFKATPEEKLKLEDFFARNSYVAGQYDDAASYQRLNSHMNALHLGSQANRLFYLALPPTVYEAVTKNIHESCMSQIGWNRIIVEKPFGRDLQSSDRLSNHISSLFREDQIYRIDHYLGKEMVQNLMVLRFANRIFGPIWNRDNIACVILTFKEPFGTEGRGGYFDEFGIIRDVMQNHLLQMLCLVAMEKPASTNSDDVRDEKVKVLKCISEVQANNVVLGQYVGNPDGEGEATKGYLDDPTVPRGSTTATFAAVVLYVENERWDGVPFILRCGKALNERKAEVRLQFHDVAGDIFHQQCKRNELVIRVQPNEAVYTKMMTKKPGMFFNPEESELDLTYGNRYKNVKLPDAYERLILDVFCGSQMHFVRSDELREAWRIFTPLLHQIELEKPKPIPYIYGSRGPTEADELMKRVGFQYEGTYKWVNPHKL
Chain of Large T antigen (P03070 whole entry): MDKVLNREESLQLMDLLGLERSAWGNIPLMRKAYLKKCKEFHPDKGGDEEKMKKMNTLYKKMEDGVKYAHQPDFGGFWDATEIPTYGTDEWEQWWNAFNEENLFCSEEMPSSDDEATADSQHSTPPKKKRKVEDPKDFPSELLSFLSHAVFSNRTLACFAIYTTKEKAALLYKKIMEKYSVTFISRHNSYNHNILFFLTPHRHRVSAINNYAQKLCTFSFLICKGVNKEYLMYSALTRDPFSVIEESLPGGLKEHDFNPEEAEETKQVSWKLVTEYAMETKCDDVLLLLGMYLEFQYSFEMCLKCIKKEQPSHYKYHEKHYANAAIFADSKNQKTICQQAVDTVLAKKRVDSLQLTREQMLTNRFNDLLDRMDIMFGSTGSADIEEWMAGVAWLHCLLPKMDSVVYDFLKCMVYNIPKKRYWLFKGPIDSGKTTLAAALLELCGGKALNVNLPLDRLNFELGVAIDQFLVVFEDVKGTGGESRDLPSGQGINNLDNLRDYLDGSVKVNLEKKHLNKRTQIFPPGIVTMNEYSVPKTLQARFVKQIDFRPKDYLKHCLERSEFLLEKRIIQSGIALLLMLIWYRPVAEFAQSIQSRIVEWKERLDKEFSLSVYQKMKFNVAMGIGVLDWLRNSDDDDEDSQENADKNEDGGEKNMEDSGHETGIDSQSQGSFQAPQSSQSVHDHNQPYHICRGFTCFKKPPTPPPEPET
Chain of Cytochrome P450 3A4 (P08684 whole entry): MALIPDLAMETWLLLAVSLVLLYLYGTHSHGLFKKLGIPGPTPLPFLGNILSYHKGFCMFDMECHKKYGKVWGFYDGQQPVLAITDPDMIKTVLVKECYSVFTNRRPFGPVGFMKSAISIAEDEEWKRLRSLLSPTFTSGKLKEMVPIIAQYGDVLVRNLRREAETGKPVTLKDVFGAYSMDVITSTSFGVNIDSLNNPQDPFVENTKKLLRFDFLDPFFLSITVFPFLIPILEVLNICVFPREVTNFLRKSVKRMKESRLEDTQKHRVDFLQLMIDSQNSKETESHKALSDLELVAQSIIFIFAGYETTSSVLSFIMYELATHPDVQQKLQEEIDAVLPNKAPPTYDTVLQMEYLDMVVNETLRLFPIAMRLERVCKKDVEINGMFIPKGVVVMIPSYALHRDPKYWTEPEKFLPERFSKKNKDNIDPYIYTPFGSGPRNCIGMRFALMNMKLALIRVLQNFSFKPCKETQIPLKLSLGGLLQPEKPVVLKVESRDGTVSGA
Chain of Paired box protein Pax-8 (Q06710 whole entry): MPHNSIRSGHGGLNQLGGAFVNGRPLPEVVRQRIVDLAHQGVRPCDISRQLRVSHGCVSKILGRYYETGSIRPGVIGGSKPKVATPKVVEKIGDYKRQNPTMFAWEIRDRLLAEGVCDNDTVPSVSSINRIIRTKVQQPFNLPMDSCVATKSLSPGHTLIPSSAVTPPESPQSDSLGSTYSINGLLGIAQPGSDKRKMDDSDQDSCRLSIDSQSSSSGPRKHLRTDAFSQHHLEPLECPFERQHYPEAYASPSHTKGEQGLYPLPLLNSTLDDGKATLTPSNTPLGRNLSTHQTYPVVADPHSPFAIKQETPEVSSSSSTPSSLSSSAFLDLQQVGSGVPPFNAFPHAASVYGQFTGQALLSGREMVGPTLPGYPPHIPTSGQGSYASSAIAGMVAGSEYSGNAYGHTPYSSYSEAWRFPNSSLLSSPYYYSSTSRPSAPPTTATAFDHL

SMILES: C[C@@H]1CC=C[C@H]2[C@H]1C(=O)N(Cc1ccccc1)[C@H]2c1ccc(F)c(Br)c1
- EC50 (Protein RecA): 23 µM (active)
- CC50 (Vero [1]): 24.1 µM (active)
- AC50 [2]: 5.04 µM (active)

SMILES: CCC(=O)c1ccccc1OCCCN1CCC(Cc2ccccc2)CC1
- IC50 [3]: > 96.6 µM (inactive)

SMILES: O=C(CSc1nnc(-c2cccnc2)n1Cc1ccco1)c1ccc(Br)cc1
- IC50 [4]: > 100 µM (active)

SMILES: CC(C)(C)C(=O)NC(=C(Cl)Cl)P(=O)(O)O
- IC50 [5]: 9.26 µM (active)
- AC50 (Cytochrome P450 1A2): 0.1 µM (inconclusive)

SMILES: COC(=O)C(Cc1c[nH]c2ccccc12)NC(=O)C(C)C (stereo unspecified)
- AC50 (Cytochrome P450 2C19): 22.4 µM (inconclusive)
- IC50 [4]: > 100 µM (active)
- AC50 (Cytochrome P450 3A4): 31.6 µM (inconclusive)

SMILES: COc1ccc2nc(C)cc(SCC(=O)N/N=C/c3cccc4ccccc34)c2c1
- AC50 [6]: 1.11 µM (active)
- IC50 [5]: 2.57 µM (active)

SMILES: C[C@]12CCC3C(CCC4=CC(O)CC[C@@]43/C=N/O)C1(O)CCC2C1=CC(=O)OC1 (stereo partly specified)
- CC50 (Vero [7]): 1.34 µM (active)
- EC50 (BJ [8]): 0.391 µM (active)
- IC50 [9]: > 80 µM (inactive)
- CC50 (Vero [1]): 0.79 µM (active)
- EC50 (BJ [10]): 2.56 µM (active)
- EC50 [11]: 2.33 µM (active)
- AC50 [12]: 50.2 µM (active)
- AC50 (Paired box protein Pax-8): 2.22 µM (active)
- EC50 (BJ [13]): 1.9 µM (active)
- IC50 [14]: > 39.8 µM (not active)
- EC50 (BJ [15]): 2.36 µM (inconclusive)

SMILES: Nc1c(O)cccc1C(=O)O
- IC50 (Large T antigen): 20.1 µM (active)
- EC50 (Protein RecA): 5.43 µM (active)
- AC50 (Caspase-6): 1.59 µM (active)
- AC50 (Caspase-7): 6.14 µM (active)
- AC50 [2]: > 380 µM (inactive)
- IC50 [16]: 24 µM (inactive)
- AC50 (Caspase-9): > 70 µM (inactive)

SMILES: O=C1CCCCC1Oc1ccc2ccc(=O)oc2c1 (stereo unspecified)
- IC50 [4]: > 100 µM (active)
